Our source for the IC50, Activity and inhibition values is ChEMBL document CHEMBL5537150, “Synthesis of melampomagnolide B derivatives as potential anti-Triple Negative Breast Cancer agents” (Eur J Med Chem, 2024).

Active and inactive are the calls of the source. The rule behind the calls is not given here. A value given as a limit tells only on which side of the number the result lay.

Data set [1] concerns MDA-MB-231. The experiment in a line: Antiproliferative activity against human MDA-MB-231 cells assessed as inhibition of cell growth incubated for 72 hrs by MTT assay. It counts as functional, cell-based. The conditions noted are these: MDA-MB-231, 72 h.
Data set [2] concerns MDA-MB-231. The experiment in a line: Induction of apoptosis in human MDA-MB-231 cells at 5 uM incubated for 48 hrs by annexin-V-APC/PI staining based flow cytometric analysis (reference value: 5.9 +/- 0.26 %). It counts as functional. (A flow cytometer gives signals particle by particle.)
The subject of data set [3] is MDA-MB-468. Description: Induction of apoptosis in human MDA-MB-468 cells at 0.2 uM incubated for 48 hrs by annexin-V-APC/PI staining based flow cytometric analysis (reference value: 5.65 +/- 2.76 %). It counts as functional.
Data set [4] deals with MDA-MB-231. The experiment in a line: Inhibition of NF-kappaB signalling pathway in human MDA-MB-231 cells assessed as downregulation of nuclear p65 expression at 0.2 to 2 uM incubated for 48 hrs by Western blotting analysis. In kind it is cell-based. The conditions noted are these: dose 0.2-2 µM.
The test system of data set [5] is MDA-MB-231. Description: Induction of apoptosis in human MDA-MB-231 cells at 0.5 uM incubated for 48 hrs by annexin-V-APC/PI staining based flow cytometric analysis (reference value: 5.9 +/- 0.26 %). It counts as functional.
In data set [6] the test system is MDA-MB-231. Description: Inhibition of NF-kappaB signalling pathway in human MDA-MB-231 cells assessed as upregulation of cytoplasmic p65 expression at 0.2 to 2 uM incubated for 48 hrs by Western blotting analysis. It counts as cell-based. The conditions noted are these: dose 0.2-2 µM.
Data set [7] concerns MDA-MB-231. The experiment in a line: Induction of apoptosis in human MDA-MB-231 cells at 2 uM incubated for 48 hrs by annexin-V-APC/PI staining based flow cytometric analysis (reference value: 5.9 +/- 0.26 %). It counts as functional.
The next data set deals with MCF7. Description: Antiproliferative activity against human MCF7 cells assessed as inhibition of cell growth incubated for 72 hrs by MTT assay. The conditions noted are these: MCF7, 72 h. It counts as functional, cell-based. (Tetrazolium dyes change colour on reduction, which living cells bring about.)
Data set [8] has as its system MDA-MB-468. The experiment in a line: Antimigratory activity in human MDA-MB-468 cells assessed as downregulation of Vimentin protein expression incubated for 48 hrs by Western blotting analysis. It counts as functional, cell-based. (In western blotting, separated proteins are transferred to a membrane and probed.)
The subject of data set [9] is MDA-MB-231. Description: Inhibition of NF-kappaB signalling pathway in human MDA-MB-231 cells assessed as effect on total p65 protein level at 0.2 to 2 uM incubated for 48 hrs by Western blotting analysis. It counts as cell-based. The conditions noted are these: dose 0.2-2 µM.
For data set [10], the system named is MDA-MB-231. The experiment in a line: Induction of apoptosis in human MDA-MB-231 cells assessed as downregulation of MCL-1 protein expression incubated for 48 hrs by Western blotting analysis. In kind it is functional, cell-based.
The test system of data set [11] is MDA-MB-231. The experiment in a line: Antimigratory activity in human MDA-MB-231 cells assessed as downregulation of Vimentin protein expression incubated for 48 hrs by Western blotting analysis. It counts as functional, cell-based.
For data set [12], the system named is MDA-MB-468. The experiment in a line: Induction of apoptosis in human MDA-MB-468 cells at 2 uM incubated for 48 hrs by annexin-V-APC/PI staining based flow cytometric analysis (reference value: 5.65 +/- 2.76 %). It counts as functional.
Data set [13] has as its system MDA-MB-231. Description: Induction of apoptosis in human MDA-MB-231 cells assessed as downregulation of BCL-2 protein expression incubated for 48 hrs by Western blotting analysis. In kind it is functional, cell-based.
The test system of data set [14] is MDA-MB-231. Description: Inhibition of NF-kappaB signalling pathway in human MDA-MB-231 cells assessed as inhibition of p65 nuclear translocation at 0.2 to 2 uM incubated for 48 hrs by Western blotting analysis. In kind it is cell-based. The conditions noted are these: dose 0.2-2 µM.
The test system of data set [15] is MDA-MB-468. The experiment in a line: Induction of apoptosis in human MDA-MB-468 cells at 1 uM incubated for 48 hrs by annexin-V-APC/PI staining based flow cytometric analysis (reference value: 5.65 +/- 2.76 %). It counts as functional.
Data set [16] deals with MDA-MB-468. Description: Antimigratory activity in human MDA-MB-468 cells assessed as downregulation of N-cadherin protein expression incubated for 48 hrs by Western blotting analysis. In kind it is functional, cell-based.
Data set [17] relates to MDA-MB-231. The experiment in a line: Induction of apoptosis in human MDA-MB-231 cells at 0.2 uM incubated for 48 hrs by annexin-V-APC/PI staining based flow cytometric analysis (reference value: 5.9 +/- 0.26 %). It counts as functional.
Data set [18] has as its system MDA-MB-231. Description: Induction of apoptosis in human MDA-MB-231 cells assessed as upregulation of Bax protein expression incubated for 48 hrs by Western blotting analysis. It counts as functional, cell-based.
Data set [19] has as its system MDA-MB-468. The experiment in a line: Antimigratory activity in human MDA-MB-468 cells assessed as reduction in number of migrated cells incubated for 48 hrs by crystal violet staining based transwell assay. It counts as functional, cell-based.
For a further data set, the system named is SUM-159-PT. The experiment in a line: Antiproliferative activity against human SUM159 cells assessed as inhibition of cell growth incubated for 72 hrs by MTT assay. It counts as functional, cell-based.
Data set [20] has as its system MDA-MB-231. Description: Inhibition of NF-kappaB signalling pathway in human MDA-MB-231 cells assessed as downregulation of p65 phosphorylation at 0.5 to 2 uM incubated for 48 hrs by Western blotting analysis. In kind it is cell-based. The conditions noted are these: dose 0.5-2 µM.
Data set [21] relates to MDA-MB-468. The experiment in a line: Induction of apoptosis in human MDA-MB-468 cells at 5 uM incubated for 48 hrs by annexin-V-APC/PI staining based flow cytometric analysis (reference value: 5.65 +/- 2.76 %). It counts as functional.
The subject of data set [22] is MDA-MB-231. The experiment in a line: Inhibition of NF-kappaB signalling pathway in human MDA-MB-231 cells assessed as downregulation of IkappaBalpha phosphorylation at 0.5 to 2 uM incubated for 48 hrs by Western blotting analysis. In kind it is cell-based. The conditions noted are these: dose 0.5-2 µM.
In a further data set the test system is NIH3T3. The experiment in a line: Cytotoxicity against mouse 3T3 cells at 1 uM incubated for 72 hrs by MTT assay. In kind it is toxicity, cell-based. The conditions noted are these: nih3t3, 72 h.
Data set [23] relates to MDA-MB-468. Description: Induction of apoptosis in human MDA-MB-468 cells at 0.5 uM incubated for 48 hrs by annexin-V-APC/PI staining based flow cytometric analysis (reference value: 5.65 +/- 2.76 %). In kind it is functional.
The subject of data set [24] is MDA-MB-231. Description: Induction of apoptosis in human MDA-MB-231 cells at 1 uM incubated for 48 hrs by annexin-V-APC/PI staining based flow cytometric analysis (reference value: 5.9 +/- 0.26 %). It counts as functional.
Data set [25] deals with MDA-MB-231. The experiment in a line: Antimigratory activity in human MDA-MB-231 cells assessed as reduction in number of migrated cells incubated for 48 hrs by crystal violet staining based transwell assay. In kind it is functional, cell-based.
The subject of the next data set is 4T1. Description: Antiproliferative activity against mouse 4T1 cells assessed as inhibition of cell growth incubated for 72 hrs by MTT assay. The conditions noted are these: 4T1, 72 h. In kind it is functional, cell-based.
For data set [26], the system named is MDA-MB-231. The experiment in a line: Induction of apoptosis in human MDA-MB-231 cells assessed as downregulation of BCL-xl protein expression incubated for 48 hrs by Western blotting analysis. It counts as functional, cell-based.
For data set [27], the system named is MDA-MB-468. Description: Antiproliferative activity against human MDA-MB-468 cells assessed as inhibition of cell growth incubated for 72 hrs by MTT assay. The conditions noted are these: MDA-MB-468, 72 h. It counts as functional, cell-based.
Data set [28] concerns MDA-MB-231. The experiment in a line: Antimigratory activity in human MDA-MB-231 cells assessed as downregulation of N-cadherin protein expression incubated for 48 hrs by Western blotting analysis. It counts as functional, cell-based.

For `C=C1C(=O)O[C@H]2[C@H]1C(COC(=O)CC1(CC(=O)O)CCCCC1)C/C=C\CC[C@@]1(C)O[C@@H]21` (stereo partly drawn), in the data set with MDA-MB-231 [1], the IC50 amounted to 12.8 µM.

Take `C=C1C(=O)O[C@H]2[C@H]1C(COC(=O)c1cc3ccccc3cc1C(=O)Oc1ccc(-c3cc(=S)ss3)cc1)C/C=C\CC[C@@]1(C)O[C@@H]21` (stereo partly drawn): in the data set on MDA-MB-231 [1], the IC50 amounted to 7.58 µM.

For the molecule `C=C1C(=O)O[C@H]2[C@H]1CC/C(C(=O)O)=C\CC[C@@]1(C)O[C@@H]21`, the IC50 in the data set with MDA-MB-231 [1] was > 50 µM.

Take `C=C1C(=O)O[C@H]2[C@H]1C(COC(=O)CC(C)(C)CC(=O)Oc1ccc(-c3cc(=S)ss3)cc1)C/C=C\CC[C@@]1(C)O[C@@H]21` (stereo partly drawn): the IC50 with MDA-MB-231 [1] was 1.68 µM.

As to `C=C1C(=O)O[C@H]2[C@H]1C(COC(=O)/C=C/c1ccccc1OCCc1ccc(-c3cc(=S)ss3)cc1)C/C=C\CC[C@@]1(C)O[C@@]21C` (stereo partly drawn), the Activity in the data set on MDA-MB-231 [2] was 49.35%; in the data set with MDA-MB-468 [3] it was 5.8%; with MDA-MB-231 [5], 7.9%; in the data set with MDA-MB-231 [7], 20.32%; with MDA-MB-468 [8] it was “Dose-Dependent Effect”; with MDA-MB-231 [10], “Dose-Dependent Effect”. In addition, the Activity entry is “Dose-Dependent Effect” in the data set on MDA-MB-231 [11]; 11.32% in the data set on MDA-MB-468 [12]; “Dose-Dependent Effect” with MDA-MB-231 [13]; 4.87% with MDA-MB-468 [15]; “Dose-Dependent Effect” in the data set with MDA-MB-468 [16]; 6.85% in the data set with MDA-MB-231 [17]. Besides, the Activity entry with MDA-MB-231 [18] is “Dose-Dependent Effect”; in the data set with MDA-MB-468 [19], “Dose-Dependent Effect”; in the data set on MDA-MB-468 [21] it was 52.61%; with NIH3T3 it was “Toxic”; in the data set on MDA-MB-468 [23] it was 4.3%; in the data set on MDA-MB-231 [24], 15.46%. Also, the Activity result in the data set on MDA-MB-231 [25], in the data set on MDA-MB-231 [26] and in the data set on MDA-MB-231 [28] was “Dose-Dependent Effect” in each case. Further, the inhibition result in the data set on MDA-MB-231 [4], with MDA-MB-231 [6], in the data set with MDA-MB-231 [14], with MDA-MB-231 [20] and with MDA-MB-231 [22] was “Active” in each case. For the same molecule, the IC50 with MCF7 came out at 1.81 µM; with SUM-159-PT it was 1.06 µM; in the data set on MDA-MB-231 [1] it was 1.07 µM; in the data set on 4T1, 2.85 µM; with MDA-MB-468 [27] it was 0.37 µM. In the data set with MDA-MB-231 [9], the inhibition result is “inactive”.

Take `C=C1C(=O)O[C@H]2[C@H]1C(COC(=O)CCCCC(=O)O)C/C=C\CC[C@@]1(C)O[C@@H]21` (stereo partly drawn): the IC50 in the data set on MDA-MB-231 [1] was > 50 µM.

In the case of `C=C1C(=O)O[C@H]2[C@H]1C(COC(=O)CC1(CC(=O)Oc3ccc(-c4cc(=S)ss4)cc3)CCCCC1)C/C=C\CC[C@@]1(C)O[C@@H]21` (stereo partly drawn), the IC50 in the data set with MDA-MB-231 [1] is 1.76 µM.

In the case of `C=C1C(=O)O[C@H]2[C@H]1C(COC(=O)CCCCC(=O)Oc1ccc(-c3cc(=S)ss3)cc1)C/C=C\CC[C@@]1(C)O[C@@H]21` (stereo partly drawn), in the data set on MDA-MB-231 [1], the IC50 was found to be 6.2 µM.

For the molecule `C=C1C(=O)O[C@H]2[C@H]1CC/C(CO)=C\CC[C@@]1(C)O[C@@H]21`, the IC50 with MCF7 is 6.76 µM; in the data set with SUM-159-PT, 7.45 µM; in the data set with MDA-MB-231 [1], 3.84 µM; in the data set on 4T1, 5.88 µM; with MDA-MB-468 [27], 20 µM.

As for `C=C1C(=O)O[C@H]2[C@H]1CC/C(C(=O)OCCCOc1ccc(-c3cc(=S)ss3)cc1)=C\CC[C@@]1(C)O[C@@H]21`, in the data set on MDA-MB-231 [1], the IC50 is 2.09 µM.

Regarding `C=C1C(=O)O[C@H]2[C@H]1C(COC(=O)c1ccccc1C(=O)O)C/C=C\CC[C@@]1(C)O[C@@H]21` (stereo partly drawn), the IC50 in the data set with MDA-MB-231 [1] was > 50 µM.

As for `C=C1C(=O)O[C@H]2[C@H]1CC/C(C(=O)OCCOc1ccc(-c3cc(=S)ss3)cc1)=C\CC[C@@]1(C)O[C@@H]21`, in the data set on MDA-MB-231 [1], the IC50 stood at 2.35 µM.

Regarding `C=C1C(=O)O[C@H]2[C@H]1C(COC(=O)CCCC(=O)Oc1ccc(-c3cc(=S)ss3)cc1)C/C=C\CC[C@@]1(C)O[C@@H]21` (stereo partly drawn), the IC50 with MDA-MB-231 [1] was determined as 8.52 µM.

Usually IC50 stands for the midpoint of a concentration-inhibition curve.
